Active and inactive are the calls of the source. The calls are words filed in the database; no cut-off is given here.
Legend:
[1] = target: T1, C-X-C chemokine receptor type 4 (Homo sapiens, UniProt P61073); test: Inhibition of Mab A145 binding to CXCR4 expressed in human MOLT4 cells at 0.1 to 1000 nM by FACS analysis; format: cell-based; conditions: MOLT-4
[2] = tested on: Human immunodeficiency virus 1; test: Antiviral activity against HIV1 X4 infected in human PBMC assessed as inhibition of viral p24 antigen production after 7 to 10 days by ELISA; format: functional, organism-based; conditions: Human immunodeficiency virus 1, X4
[3] = tested on: Human immunodeficiency virus 1; test: Antiviral activity against HIV1 A018H infected in human PBMC assessed as inhibition of viral p24 antigen production after 7 to 10 days by ELISA; format: functional, organism-based; conditions: Human immunodeficiency virus 1, A018H
[4] = tested on: Human immunodeficiency virus 1; test: Antiviral activity against HIV1 A018G infected in human PBMC assessed as inhibition of viral p24 antigen production after 7 to 10 days by ELISA; format: functional, organism-based; conditions: Human immunodeficiency virus 1, A018G
[5] = tested on: Human immunodeficiency virus 1; test: Antiviral activity against HIV1 HXB2 infected in HEK293 cells assessed as inhibition of viral replication after 2 days; format: functional, organism-based; conditions: Human immunodeficiency virus 1, HXB2, HEK293, 48 h
[6] = target: C-C chemokine receptor type 1 (Homo sapiens) (UniProt P32246); test: Displacement of [125I]RANTES form CCR1 expressed in CHO cells by scintillation counting; format: cell-based
C-C chemokine receptor type 1 (Homo sapiens), sequence (P32246 whole entry): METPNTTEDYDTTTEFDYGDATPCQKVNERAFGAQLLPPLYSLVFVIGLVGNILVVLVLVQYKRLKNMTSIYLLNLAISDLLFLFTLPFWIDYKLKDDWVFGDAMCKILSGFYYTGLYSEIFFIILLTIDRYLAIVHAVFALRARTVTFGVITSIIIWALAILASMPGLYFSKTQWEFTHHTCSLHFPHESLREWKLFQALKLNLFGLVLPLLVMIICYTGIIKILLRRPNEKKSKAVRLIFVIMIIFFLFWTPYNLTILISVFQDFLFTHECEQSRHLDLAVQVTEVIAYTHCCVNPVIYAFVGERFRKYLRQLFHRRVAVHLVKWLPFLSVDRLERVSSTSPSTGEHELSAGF

[7] = target: C-C chemokine receptor type 5 (Homo sapiens) (UniProt P51681); test: Displacement of [125I]RANTES form CCR5 expressed in CHO cells by scintillation counting; format: cell-based
C-C chemokine receptor type 5 (Homo sapiens), sequence (P51681 whole entry, looked up): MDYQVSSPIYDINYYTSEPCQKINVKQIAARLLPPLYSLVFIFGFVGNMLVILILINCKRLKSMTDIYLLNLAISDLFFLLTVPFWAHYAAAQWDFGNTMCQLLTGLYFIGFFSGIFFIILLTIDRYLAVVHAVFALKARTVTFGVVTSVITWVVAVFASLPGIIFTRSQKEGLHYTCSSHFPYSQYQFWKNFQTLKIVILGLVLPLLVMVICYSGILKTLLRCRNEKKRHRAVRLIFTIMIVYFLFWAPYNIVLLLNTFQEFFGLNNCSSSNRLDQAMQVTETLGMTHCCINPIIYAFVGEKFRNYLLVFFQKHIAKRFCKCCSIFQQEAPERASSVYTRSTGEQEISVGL

[8] = target: C-X-C chemokine receptor type 1 (Homo sapiens) (UniProt P25024); test: Displacement of [125I]IL8 form CXCR1 expressed in CHO cells by scintillation counting; format: cell-based
C-X-C chemokine receptor type 1 (Homo sapiens), sequence (P25024 whole entry): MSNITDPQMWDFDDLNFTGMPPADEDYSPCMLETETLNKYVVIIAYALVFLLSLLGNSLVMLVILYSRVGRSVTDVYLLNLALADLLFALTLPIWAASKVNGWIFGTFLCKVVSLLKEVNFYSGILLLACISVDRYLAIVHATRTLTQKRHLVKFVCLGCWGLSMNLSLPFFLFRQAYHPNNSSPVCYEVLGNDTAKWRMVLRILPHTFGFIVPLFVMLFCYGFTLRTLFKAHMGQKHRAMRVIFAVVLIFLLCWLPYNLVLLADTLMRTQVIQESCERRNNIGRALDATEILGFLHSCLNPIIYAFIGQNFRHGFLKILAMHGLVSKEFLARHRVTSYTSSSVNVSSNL

[9] = target: T1, C-X-C chemokine receptor type 4; test: Antagonist activity at CXCR4 expressed in CHO cells assessed as inhibition of SDF1-alpha-induced calcium mobilization by fluorescence assay; format: functional, cell-based
[10] = target: T1, C-X-C chemokine receptor type 4; test: Inhibition of Mab 12G5 binding to CXCR4 expressed in human MOLT4 cells by FACS analysis; format: cell-based; conditions: MOLT-4
[11] = target: T1, C-X-C chemokine receptor type 4; test: Inhibition of Mab 44717 binding to CXCR4 expressed in human MOLT4 cells by FACS analysis; format: cell-based; conditions: MOLT-4
[12] = Volume of distribution at steady state in Sprague-Dawley rat at 10 mg/kg, iv administered as single dose; format: ADME, organism-based; set-up: dose 10 mg/kg, route intravenous; conditions: in vivo
[13] = AUC (0 to 336 hrs) in Sprague-Dawley rat at 10 mg/kg, po administered as single dose; format: ADME, organism-based; set-up: time < 336 hr, dose 10 mg/kg, route oral; conditions: plasma
[14] = tested on: C-X-C chemokine receptor type 4 (Homo sapiens), P61073 [D181A]; test: (§1) Inhibition of Mab 12G5 binding to CXCR4 D181A mutant expressed in HEK293 cells; format: cell-based
C-X-C chemokine receptor type 4 (Homo sapiens), P61073 [D181A], sequence (P61073 whole entry D181A): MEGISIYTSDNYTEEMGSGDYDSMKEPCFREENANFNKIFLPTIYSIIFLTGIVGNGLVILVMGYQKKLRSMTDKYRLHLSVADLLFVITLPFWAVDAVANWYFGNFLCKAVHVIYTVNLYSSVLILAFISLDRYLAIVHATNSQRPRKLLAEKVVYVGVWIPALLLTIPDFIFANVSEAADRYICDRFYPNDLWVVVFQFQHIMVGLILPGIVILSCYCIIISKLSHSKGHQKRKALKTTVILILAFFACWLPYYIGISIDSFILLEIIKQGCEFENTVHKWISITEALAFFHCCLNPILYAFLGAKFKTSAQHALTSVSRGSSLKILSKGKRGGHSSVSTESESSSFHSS

[15] = target: C-X-C chemokine receptor type 4 (Homo sapiens, UniProt P61073, D181A); test: as §1; format: cell-based
C-X-C chemokine receptor type 4 (Homo sapiens, UniProt P61073, D181A), sequence (P61073 whole entry D181A): as above

[16] = tested on: C-X-C chemokine receptor type 4 (Homo sapiens), P61073 [H203A]; test: (§2) Inhibition of Mab 12G5 binding to CXCR4 H203A mutant expressed in HEK293 cells; format: cell-based
C-X-C chemokine receptor type 4 (Homo sapiens), P61073 [H203A], sequence (P61073 whole entry H203A): as the sequence (P61073 whole entry D181A) above, with A181D, H203A counted along it

[17] = target: C-X-C chemokine receptor type 4 (Homo sapiens, UniProt P61073, H203A); test: as §2; format: cell-based
C-X-C chemokine receptor type 4 (Homo sapiens, UniProt P61073, H203A), sequence (P61073 whole entry H203A): as the sequence (P61073 whole entry D181A) above, with A181D, H203A counted along it

[18] = tested on: C-X-C chemokine receptor type 4 (Homo sapiens), P61073 [E275A]; test: (§3) Inhibition of Mab 12G5 binding to CXCR4 E275A mutant expressed in HEK293 cells; format: cell-based
C-X-C chemokine receptor type 4 (Homo sapiens), P61073 [E275A], sequence (P61073 whole entry E275A): as the sequence (P61073 whole entry D181A) above, with A181D, E275A counted along it

[19] = target: C-X-C chemokine receptor type 4 (Homo sapiens, UniProt P61073, E275A); test: as §3; format: cell-based
C-X-C chemokine receptor type 4 (Homo sapiens, UniProt P61073, E275A), sequence (P61073 whole entry E275A): as the sequence (P61073 whole entry D181A) above, with A181D, E275A counted along it

[20] = tested on: C-X-C chemokine receptor type 4 (Homo sapiens), P61073 [V280A]; test: (§4) Inhibition of Mab 12G5 binding to CXCR4 V280A mutant expressed in HEK293 cells; format: cell-based
C-X-C chemokine receptor type 4 (Homo sapiens), P61073 [V280A], sequence (P61073 whole entry V280A): as the sequence (P61073 whole entry D181A) above, with A181D, V280A counted along it

[21] = target: C-X-C chemokine receptor type 4 (Homo sapiens, UniProt P61073, V280A); test: as §4; format: cell-based
C-X-C chemokine receptor type 4 (Homo sapiens, UniProt P61073, V280A), sequence (P61073 whole entry V280A): as the sequence (P61073 whole entry D181A) above, with A181D, V280A counted along it

[22] = target: C-X-C chemokine receptor type 4 (Homo sapiens, UniProt P61073, E288A/L290A)
C-X-C chemokine receptor type 4 (Homo sapiens, UniProt P61073, E288A/L290A), sequence (P61073 whole entry E288A/L290A): as the sequence (P61073 whole entry D181A) above, with A181D, E288A, L290A counted along it

[23] = tested on: C-X-C chemokine receptor type 4 (Homo sapiens), P61073 [H113A]; conditions: HEK293
C-X-C chemokine receptor type 4 (Homo sapiens), P61073 [H113A], sequence (P61073 whole entry H113A): as the sequence (P61073 whole entry D181A) above, with H113A, A181D counted along it

[24] = tested on: C-X-C chemokine receptor type 4 (Homo sapiens), P61073 [E277A]; conditions: HEK293
C-X-C chemokine receptor type 4 (Homo sapiens), P61073 [E277A], sequence (P61073 whole entry E277A): as the sequence (P61073 whole entry D181A) above, with A181D, E277A counted along it

[25] = tested on: C-X-C chemokine receptor type 4 (Homo sapiens), P61073 [W283A]; conditions: HEK293
C-X-C chemokine receptor type 4 (Homo sapiens), P61073 [W283A], sequence (P61073 whole entry W283A): as the sequence (P61073 whole entry D181A) above, with A181D, W283A counted along it

[26] = tested on: C-X-C chemokine receptor type 4 (Homo sapiens), P61073 [E288A,L290A]; conditions: HEK293
C-X-C chemokine receptor type 4 (Homo sapiens), P61073 [E288A,L290A], sequence (P61073 whole entry E288A/L290A): as the sequence (P61073 whole entry D181A) above, with A181D, E288A, L290A counted along it

T1 sequence (P61073 whole entry): as the sequence (P61073 whole entry D181A) above, with A181D counted along it

What does the source list for `CCCN(CCC)CCCCN(C)Cc1ccc(CN(Cc2ncc[nH]2)Cc2nccn2C)cc1.O=C(O)C(O)C(O)C(=O)O`?
inhibition [1]: inactive; EC50 [2]: 0.33 nM; EC50 [3]: 1.4 nM; EC50 [4]: 1.3 nM; IC50 [5]: 0.6 nM; Activity [6]: inactive; Activity [7]: inactive; Activity [8]: inactive; inhibition [9]: Dose-dependent effect; inhibition [10]: Dose-dependent effect; inhibition [11]: Dose-dependent effect; Vd [12]: 374 L/kg; AUC(0-t) at 336 h [13]: 325 ng·h/mL; IC90 [14]: 5.1 nM; IC50 [15]: 0.5 nM; IC90 [16]: 5.3 nM; IC50 [17]: 0.5 nM; IC90 [18]: 6.4 nM; IC50 [19]: 1 nM; IC90 [20]: 6.1 nM; IC50 [21]: 1 nM; IC50 [22]: 1.6 nM; IC90 [23]: 6.3 nM; IC90 [24]: 8.7 nM; IC90 [25]: 6.9 nM; IC90 [26]: 7.7 nM
